This passage reports inhibition and Vd results from ChEMBL document CHEMBL4387741, “Optimization of novel reversible Bruton's tyrosine kinase inhibitors identified using Tethering-fragment-based screens” (Bioorg Med Chem, 2019).

The target of data set [1] is Mitogen-activated protein kinase kinase kinase 10 (Homo sapiens) (UniProt Q02779). Kind of data set: Inhibition of wild-type human partial length MLK2 (V52 to W380 residues) expressed in bacterial expression system at 10 uM by Kinomescan method relative to control.
The subject of data set [2] is Phosphatidylinositol 4,5-bisphosphate 3-kinase catalytic subunit alpha isoform (Homo sapiens), P42336 [C420R]. Kind of data set: Inhibition of human partial length PIK3CA C420R mutant (R108 to N1068 residues) expressed in mammalian expression system at 10 uM by Kinomescan method relative to control.
The test system of data set [3] is Epidermal growth factor receptor (Homo sapiens), P00533 [L858R,T790M]. The data set can be described thus: Inhibition of human partial length EGFR L858R/T790M double mutant (R669 to V1011 residues) expressed in mammalian expression system at 10 uM by Kinomescan method relative to control.
Chain of Epidermal growth factor receptor (Homo sapiens), P00533 [L858R,T790M] (P00533 whole entry T790M/L858R, looked up, the tested form may be a part): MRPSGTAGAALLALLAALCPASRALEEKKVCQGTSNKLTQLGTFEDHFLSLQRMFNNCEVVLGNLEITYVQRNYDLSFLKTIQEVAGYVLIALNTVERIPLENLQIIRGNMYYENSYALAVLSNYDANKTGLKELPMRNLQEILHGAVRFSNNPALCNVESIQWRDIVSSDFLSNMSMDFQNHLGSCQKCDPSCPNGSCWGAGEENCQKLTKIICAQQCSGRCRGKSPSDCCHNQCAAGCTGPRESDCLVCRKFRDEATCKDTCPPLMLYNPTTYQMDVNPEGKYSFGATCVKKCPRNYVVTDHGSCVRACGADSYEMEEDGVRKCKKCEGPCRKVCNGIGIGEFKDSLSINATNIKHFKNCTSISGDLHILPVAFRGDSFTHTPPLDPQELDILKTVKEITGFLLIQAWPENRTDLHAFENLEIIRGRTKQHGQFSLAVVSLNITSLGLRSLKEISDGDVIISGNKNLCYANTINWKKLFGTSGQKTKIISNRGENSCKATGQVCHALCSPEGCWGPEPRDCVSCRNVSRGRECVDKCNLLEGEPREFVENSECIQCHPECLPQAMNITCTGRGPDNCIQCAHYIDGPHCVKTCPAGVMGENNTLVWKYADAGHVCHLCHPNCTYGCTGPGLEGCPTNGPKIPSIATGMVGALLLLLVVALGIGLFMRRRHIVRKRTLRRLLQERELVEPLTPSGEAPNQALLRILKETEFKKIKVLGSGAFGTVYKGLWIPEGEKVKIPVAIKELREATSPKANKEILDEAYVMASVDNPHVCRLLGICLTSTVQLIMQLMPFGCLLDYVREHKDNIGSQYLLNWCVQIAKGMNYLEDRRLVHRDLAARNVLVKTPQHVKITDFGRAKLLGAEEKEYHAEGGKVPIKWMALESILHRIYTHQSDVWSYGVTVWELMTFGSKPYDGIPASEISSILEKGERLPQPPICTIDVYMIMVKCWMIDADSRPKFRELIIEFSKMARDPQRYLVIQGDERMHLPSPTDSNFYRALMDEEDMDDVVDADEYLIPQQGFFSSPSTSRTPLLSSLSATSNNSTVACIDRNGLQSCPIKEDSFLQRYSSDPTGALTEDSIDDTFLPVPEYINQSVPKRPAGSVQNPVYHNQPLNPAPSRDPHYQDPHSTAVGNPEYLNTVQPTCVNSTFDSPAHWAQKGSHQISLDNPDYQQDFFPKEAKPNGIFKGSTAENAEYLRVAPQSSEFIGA
Data set [4] concerns the target Myosin light chain kinase, smooth muscle (Homo sapiens) (UniProt Q15746). The data set can be described thus: Inhibition of wild-type human full length MYLK (M854 to E1845 residues) expressed in mammalian expression system at 10 uM by Kinomescan method relative to control.
Data set [5] has as its target Serine/threonine-protein kinase 32A (Homo sapiens) (UniProt Q8WU08). The data set can be described thus: Inhibition of wild-type human full length YANK1 (M1 to L396 residues) expressed in mammalian expression system at 10 uM by Kinomescan method relative to control.
Data set [6] concerns the target Fibroblast growth factor receptor 2 (Homo sapiens) (UniProt P21802). Kind of data set: Inhibition of wild-type human partial length FGFR2 (D457 to E769 residues) expressed in bacterial expression system at 10 uM by Kinomescan method relative to control.
Data set [7] has as its target Serine/threonine-protein kinase NIM1 (Homo sapiens) (UniProt Q8IY84). The data set can be described thus: Inhibition of wild-type human partial length NIM1 (Q44 to N355 residues) expressed in mammalian expression system at 10 uM by Kinomescan method relative to control.
The target of data set [8] is 5'-AMP-activated protein kinase catalytic subunit alpha-2 (Homo sapiens) (UniProt P54646). Kind of data set: Inhibition of wild-type human partial length AMPK alpha2 (M1 to E306 residues) expressed in bacterial expression system at 10 uM by Kinomescan method relative to control.
Data set [9] deals with Citron Rho-interacting kinase (Homo sapiens) (UniProt O14578). The data set can be described thus: Inhibition of wild-type human partial length CIT (M68 to E432 residues) expressed in bacterial expression system at 10 uM by Kinomescan method relative to control.
Data set [10] addresses Serine/threonine-protein kinase PLK1 (Homo sapiens) (UniProt P53350). The data set can be described thus: Inhibition of wild-type human partial length PLK1 (A33 to F325 residues) expressed in mammalian expression system at 10 uM by Kinomescan method relative to control.
Data set [11] deals with Tyrosine-protein kinase JAK1 (Homo sapiens) (UniProt P23458). Kind of data set: Inhibition of wild-type human partial length JAK1 JH2 pseudokinase domain (R537 to D855 residues) expressed in mammalian expression system at 10 uM by Kinomescan method relative to control.
For data set [12], the target named is Serine/threonine-protein kinase 17A (Homo sapiens) (UniProt Q9UEE5). Kind of data set: Inhibition of wild-type human partial length DRAK1 (R32 to E363 residues) expressed in bacterial expression system at 10 uM by Kinomescan method relative to control.
The target of data set [13] is Ephrin type-A receptor 6 (Homo sapiens) (UniProt Q9UF33). The data set can be described thus: Inhibition of wild-type human partial length EPHA6 (Y700 to E1046 residues) expressed in bacterial expression system at 10 uM by Kinomescan method relative to control.
Data set [14] addresses STE20/SPS1-related proline-alanine-rich protein kinase (Homo sapiens) (UniProt Q9UEW8). Kind of data set: Inhibition of wild-type human partial length STK39 (P43 to I357 residues) expressed in mammalian expression system at 10 uM by Kinomescan method relative to control.
Data set [15] concerns Epidermal growth factor receptor (Homo sapiens), P00533 [UNDEFINED MUTATION]. The data set can be described thus: Inhibition of human partial length EGFR L747-S752del/P753S mutant expressed in bacterial expression system at 10 uM by Kinomescan method relative to control.
Data set [16] has as its target Serine/threonine-protein kinase PknB (Mycobacterium tuberculosis) (UniProt P9WI81). Kind of data set: Inhibition of wild-type Mycobacterium tuberculosis partial length PKNB (M1 to G279 residues) expressed in mammalian expression system at 1 uM by Kinomescan method relative to control.
Data set [17] is described as follows: Volume of distribution at steady state in Sprague-Dawley rat at 1 mg/kg, iv. Format: ADME, organism-based. The following applies: in vivo, read-out: Vdss.
Data set [18] deals with Serine/threonine-protein kinase SIK2 (Homo sapiens) (UniProt Q9H0K1). The data set can be described thus: Inhibition of wild-type human full length SIK2 (M1 to N926 residues) expressed in bacterial expression system at 1 uM by Kinomescan method relative to control.
The target of data set [19] is Interleukin-1 receptor-associated kinase 4 (Homo sapiens) (UniProt Q9NWZ3). Kind of data set: Inhibition of wild-type human partial length IRAK4 (M1 to S460 residues) expressed in mammalian expression system at 1 uM by Kinomescan method relative to control.
For data set [20], the target named is Serine/threonine-protein kinase SIK3 (Homo sapiens) (UniProt Q9Y2K2). Kind of data set: Inhibition of wild-type human partial length QSK (A90 to L395 residues) expressed in mammalian expression system at 1 uM by Kinomescan method relative to control.
Chain of Serine/threonine-protein kinase SIK3 (Homo sapiens) (Q9Y2K2 whole entry, looked up, the tested form may be a part): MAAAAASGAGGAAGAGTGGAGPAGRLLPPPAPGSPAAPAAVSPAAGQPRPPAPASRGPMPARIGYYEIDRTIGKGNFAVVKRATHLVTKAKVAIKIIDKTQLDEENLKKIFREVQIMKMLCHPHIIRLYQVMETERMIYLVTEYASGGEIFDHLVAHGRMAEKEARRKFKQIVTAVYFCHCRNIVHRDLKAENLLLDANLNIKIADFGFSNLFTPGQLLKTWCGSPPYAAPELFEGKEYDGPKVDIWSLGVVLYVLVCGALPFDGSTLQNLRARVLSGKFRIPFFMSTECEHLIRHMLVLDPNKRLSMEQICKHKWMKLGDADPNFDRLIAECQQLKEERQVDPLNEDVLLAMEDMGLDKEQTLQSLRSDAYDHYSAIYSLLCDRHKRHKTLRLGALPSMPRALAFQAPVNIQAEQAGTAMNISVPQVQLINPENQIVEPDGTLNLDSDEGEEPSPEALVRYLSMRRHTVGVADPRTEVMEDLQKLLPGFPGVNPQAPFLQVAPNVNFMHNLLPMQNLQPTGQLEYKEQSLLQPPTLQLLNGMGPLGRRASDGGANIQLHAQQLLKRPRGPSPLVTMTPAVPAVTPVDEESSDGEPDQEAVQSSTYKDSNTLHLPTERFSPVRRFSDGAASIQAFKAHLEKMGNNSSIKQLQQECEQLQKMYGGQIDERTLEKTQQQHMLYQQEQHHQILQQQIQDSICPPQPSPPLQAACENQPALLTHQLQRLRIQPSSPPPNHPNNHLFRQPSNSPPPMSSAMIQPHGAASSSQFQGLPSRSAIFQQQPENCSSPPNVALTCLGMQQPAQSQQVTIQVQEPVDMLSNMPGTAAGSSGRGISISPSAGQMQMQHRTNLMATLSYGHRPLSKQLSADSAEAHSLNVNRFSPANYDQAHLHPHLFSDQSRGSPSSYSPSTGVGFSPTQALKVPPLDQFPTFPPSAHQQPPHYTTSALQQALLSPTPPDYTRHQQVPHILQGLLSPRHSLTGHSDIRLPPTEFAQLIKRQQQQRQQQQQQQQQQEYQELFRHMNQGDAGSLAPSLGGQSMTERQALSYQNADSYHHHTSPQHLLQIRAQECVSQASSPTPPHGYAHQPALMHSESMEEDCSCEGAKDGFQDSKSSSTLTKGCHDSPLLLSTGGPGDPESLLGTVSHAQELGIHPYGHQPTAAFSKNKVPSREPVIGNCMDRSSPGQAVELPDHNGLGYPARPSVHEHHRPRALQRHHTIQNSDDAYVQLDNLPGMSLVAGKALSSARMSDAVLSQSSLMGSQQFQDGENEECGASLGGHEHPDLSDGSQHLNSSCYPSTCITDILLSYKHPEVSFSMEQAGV
In data set [21] the target is Serine/threonine-protein kinase/endoribonuclease IRE1 (Homo sapiens) (UniProt O75460). The data set can be described thus: Inhibition of wild-type human partial length ERN1 (S551 to E852 residues) expressed in mammalian expression system at 1 uM by Kinomescan method relative to control.
In data set [22] the target is Ribosomal protein S6 kinase alpha-6 (Homo sapiens) (UniProt Q9UK32). Kind of data set: Inhibition of wild-type human partial length C-terminal RSK4 kinase domain 2 (I401 to Y711 residues) expressed in bacterial expression system at 1 uM by Kinomescan method relative to control.
Data set [23] concerns the target Cyclin-dependent kinase 11B (Homo sapiens) (UniProt P21127). The data set can be described thus: Inhibition of wild-type human partial length CDC2L1 (P353 to G692 residues) expressed in bacterial expression system at 1 uM by Kinomescan method relative to control.
The target of data set [24] is Phosphatidylinositol 3-kinase catalytic subunit type 3 (Homo sapiens) (UniProt Q8NEB9). The data set can be described thus: Inhibition of wild-type human partial length VPS34 (S282 to H879 residues) expressed in mammalian expression system at 1 uM by Kinomescan method relative to control.
Data set [25] addresses Cyclin-dependent kinase 4/cyclin D1 (Homo sapiens) (UniProt P11802+P24385). The data set can be described thus: Inhibition of wild-type human full length CDK4/cyclinD1 (M1 to E303 residues) expressed in mammalian expression system at 1 uM by Kinomescan method relative to control.
Data set [26] concerns the target RAC-beta serine/threonine-protein kinase (Homo sapiens) (UniProt P31751). The data set can be described thus: Inhibition of wild-type human partial length AKT2 expressed in bacterial expression system at 1 uM by Kinomescan method relative to control.
Data set [27] addresses SRSF protein kinase 3 (Homo sapiens) (UniProt Q9UPE1). The data set can be described thus: Inhibition of wild-type human partial length SRPK3 (P41 to P567 residues) expressed in bacterial expression system at 1 uM by Kinomescan method relative to control.

Structures are written as SMILES.

Chain of Serine/threonine-protein kinase 32A (Homo sapiens) (Q8WU08 whole entry, the tested form may be a part): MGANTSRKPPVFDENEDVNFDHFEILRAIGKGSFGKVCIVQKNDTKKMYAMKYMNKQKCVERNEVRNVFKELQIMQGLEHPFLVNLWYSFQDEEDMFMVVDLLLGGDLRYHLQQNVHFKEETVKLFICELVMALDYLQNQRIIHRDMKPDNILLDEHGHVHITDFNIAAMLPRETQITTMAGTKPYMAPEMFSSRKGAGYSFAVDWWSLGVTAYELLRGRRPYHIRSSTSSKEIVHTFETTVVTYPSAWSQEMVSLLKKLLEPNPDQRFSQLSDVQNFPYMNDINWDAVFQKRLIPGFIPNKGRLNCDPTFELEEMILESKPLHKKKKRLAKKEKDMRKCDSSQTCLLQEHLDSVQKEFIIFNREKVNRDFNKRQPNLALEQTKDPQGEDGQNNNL
Chain of SRSF protein kinase 3 (Homo sapiens) (Q9UPE1 whole entry, the tested form may be a part): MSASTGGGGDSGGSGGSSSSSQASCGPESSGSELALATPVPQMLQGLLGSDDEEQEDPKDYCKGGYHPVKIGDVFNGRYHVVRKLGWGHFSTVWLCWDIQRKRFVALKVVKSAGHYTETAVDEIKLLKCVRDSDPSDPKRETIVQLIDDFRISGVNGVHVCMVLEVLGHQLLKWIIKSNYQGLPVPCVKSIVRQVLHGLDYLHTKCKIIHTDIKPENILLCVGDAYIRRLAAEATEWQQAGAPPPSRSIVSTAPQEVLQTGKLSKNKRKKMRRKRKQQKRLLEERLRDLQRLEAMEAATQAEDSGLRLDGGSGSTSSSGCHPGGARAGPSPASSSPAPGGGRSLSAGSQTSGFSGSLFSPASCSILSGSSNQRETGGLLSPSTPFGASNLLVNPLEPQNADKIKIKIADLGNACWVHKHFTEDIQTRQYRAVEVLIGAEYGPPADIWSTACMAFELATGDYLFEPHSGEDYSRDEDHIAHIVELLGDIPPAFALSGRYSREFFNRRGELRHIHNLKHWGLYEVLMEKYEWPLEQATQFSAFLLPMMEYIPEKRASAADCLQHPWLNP
Chain of Cyclin-dependent kinase 11B (Homo sapiens) (P21127 whole entry, the tested form may be a part): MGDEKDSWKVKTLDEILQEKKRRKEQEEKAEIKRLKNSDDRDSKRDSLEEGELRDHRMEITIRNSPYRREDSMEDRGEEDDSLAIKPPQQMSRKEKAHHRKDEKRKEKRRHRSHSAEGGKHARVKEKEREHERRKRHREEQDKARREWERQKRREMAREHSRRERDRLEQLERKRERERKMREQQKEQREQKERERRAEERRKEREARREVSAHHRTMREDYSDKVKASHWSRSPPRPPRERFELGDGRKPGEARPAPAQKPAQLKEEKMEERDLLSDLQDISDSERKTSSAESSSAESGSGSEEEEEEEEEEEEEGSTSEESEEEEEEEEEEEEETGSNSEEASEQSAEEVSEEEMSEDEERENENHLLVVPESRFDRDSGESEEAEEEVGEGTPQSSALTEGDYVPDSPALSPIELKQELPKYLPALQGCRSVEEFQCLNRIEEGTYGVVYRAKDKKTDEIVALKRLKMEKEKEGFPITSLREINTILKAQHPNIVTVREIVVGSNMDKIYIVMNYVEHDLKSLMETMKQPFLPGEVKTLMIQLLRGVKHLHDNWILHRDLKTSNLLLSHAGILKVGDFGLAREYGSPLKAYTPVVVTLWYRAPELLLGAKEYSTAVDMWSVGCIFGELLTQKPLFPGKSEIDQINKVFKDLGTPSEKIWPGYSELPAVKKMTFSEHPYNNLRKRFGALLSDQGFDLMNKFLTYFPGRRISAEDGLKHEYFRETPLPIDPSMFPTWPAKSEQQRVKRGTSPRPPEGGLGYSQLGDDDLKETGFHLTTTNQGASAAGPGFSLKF
Chain of Serine/threonine-protein kinase NIM1 (Homo sapiens) (Q8IY84 whole entry, the tested form may be a part): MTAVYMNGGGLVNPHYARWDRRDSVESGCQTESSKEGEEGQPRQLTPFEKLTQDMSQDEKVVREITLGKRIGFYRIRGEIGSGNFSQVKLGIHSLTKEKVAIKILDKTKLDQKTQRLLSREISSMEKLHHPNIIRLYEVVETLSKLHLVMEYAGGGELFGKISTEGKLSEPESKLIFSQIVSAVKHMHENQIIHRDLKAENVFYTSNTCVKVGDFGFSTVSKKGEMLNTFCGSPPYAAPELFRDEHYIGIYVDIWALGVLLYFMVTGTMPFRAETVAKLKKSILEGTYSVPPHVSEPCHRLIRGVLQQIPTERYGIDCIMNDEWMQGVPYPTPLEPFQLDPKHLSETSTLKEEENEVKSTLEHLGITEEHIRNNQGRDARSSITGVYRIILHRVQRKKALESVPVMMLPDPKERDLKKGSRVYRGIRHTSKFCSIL

Turning to `O=C(Nc1cccc([C@H]2CCCN(c3ncnc4[nH]ccc34)C2)c1)Nc1ccccc1N1CCCC1`, the inhibition (commonly the percentage by which the read-out fell short of the control) in data set [1] amounted to 100%; in data set [2], 85%; in data set [3] it was 83%; in [4], 83%; in data set [5], 98%; in [6], 24%. Moreover, the inhibition in data set [7] came to 75%; in [8], 4.7%; in data set [9], 0.2%; in data set [10], 72%; in data set [11] it was 61%; in data set [12], 46%. Besides, the inhibition in data set [13] turned out to be 51%; in data set [14], 75%; in data set [15], 87%.

On to `O=C(Nc1cccc([C@@H]2CN(c3ncnc4[nH]ccc34)CCN2CCO)c1)Nc1c(F)cccc1N1CCCC1`, for which the inhibition in data set [16] is 80%; in [18] it was 93%; in data set [19] it was 91%; in data set [20] it was 93%; in data set [21], 56%; in data set [22], 88%. In addition, the inhibition was found to be 100% in data set [23]; 100% in data set [24]; 100% in data set [25]; 100% in [26]; 68% in [27]. In addition, the Vd in data set [17] amounted to 0.21 L/kg.
